Laboratory results taken from ChEMBL document CHEMBL3301361, “Experimental in vitro DMPK and physicochemical data on a set of publicly disclosed compounds”.
In brackets after ≈: the same amount, converted by molar mass.

Columns and labels:
[1] = physchem; conditions: pH 7.4 buffer
[2] = in vitro; conditions: human
[3] = in vitro; conditions: human, hepatocytes
[4] = in vitro; conditions: hepatocytes
[5] = in vitro; conditions: human, plasma
[6] = physchem; conditions: octan-1-ol/water
[7] = in vitro; conditions: SD, HW or BN, rat, plasma

O=C(O[C@H]1C[N+]2(CCCOc3ccccc3)CCC1CC2)C(O)(c1cccs1)c1cccs1
solubility thermodynamic [1]: 339 µM
microsomal CLint ([2]; liver microsomes): 140 µL/min/mg
hepatocyte CLint [3]: 64 µL/min/1e6 cells
hepatocyte CLint [4]: 80 µL/min/1e6 cells

Cc1ccccc1-n1c(Cn2nc(-c3ccc(O)c(F)c3)c3c(N)ncnc32)nc2cccc(C)c2c1=O
fraction unbound at 5 h ([5]; PPB): 0.02
logD ([6]; pH 7.4, LogD7.4): 3.55
solubility thermodynamic [1]: 25.1 µM (≈ 12.7 µg/mL)
hepatocyte CLint [3]: 39.8 µL/min/1e6 cells
hepatocyte CLint [4]: 44.7 µL/min/1e6 cells
fraction unbound at 5 h [7]: 0.0313

CN1CCN(c2nc3ccccc3cc2Cn2nc(-c3ccc4nc(N)sc4c3)c3c(N)ncnc32)CC1
logD ([6]; pH 7.4, LogD7.4): 3.09
solubility thermodynamic [1]: 100 µM (≈ 52.3 µg/mL)
microsomal CLint ([2]; liver microsomes): 72 µL/min/mg
hepatocyte CLint [3]: 7.59 µL/min/1e6 cells
hepatocyte CLint [4]: 81 µL/min/1e6 cells

O=C(Nc1nc2ccccc2s1)c1ccccc1
microsomal CLint ([2]; microsomes): > 150 µL/min/mg
hepatocyte CLint [3]: 77.6 µL/min/1e6 cells
hepatocyte CLint [4]: 64.6 µL/min/1e6 cells

C[C@H]1CN(Cc2cc(Cl)ccc2OCC(=O)O)CCN1C(=O)Cc1ccc(F)cc1
fraction unbound at 5 h [5]: 0.0287
microsomal CLint ([2]; microsomes): < 3 µL/min/mg
hepatocyte CLint [3]: < 3 µL/min/1e6 cells
hepatocyte CLint [4]: < 3 µL/min/1e6 cells
fraction unbound at 5 h [7]: 0.0928

C[C@H](Oc1ccc(Cl)cc1CN1CCN(C(=O)Cc2ccc(Cl)cc2)[C@@H](C)C1)C(=O)O
fraction unbound at 5 h [5]: 0.0256
microsomal CLint ([2]; liver microsomes): < 3 µL/min/mg
hepatocyte CLint [3]: 4.7 µL/min/1e6 cells
hepatocyte CLint [4]: < 3 µL/min/1e6 cells

NC(=O)NC(=O)C(Nc1ccc2c(c1)CCC2)c1ccccc1 (stereo unspecified)
fraction unbound at 5 h [5]: 0.03
logD ([6]; pH 7.4): 3.3
microsomal CLint ([2]; liver microsomes): 27.5 µL/min/mg
hepatocyte CLint [3]: 13.8 µL/min/1e6 cells
hepatocyte CLint [4]: 55 µL/min/1e6 cells
fraction unbound at 5 h [7]: 0.0581

O=C(O)CCc1ccc(OCc2cccc(Br)c2)cc1
logD ([6]; pH 7.4, LogD7.4): 1.67
microsomal CLint ([2]; liver microsomes): < 3 µL/min/mg
hepatocyte CLint [3]: 129 µL/min/1e6 cells
hepatocyte CLint [4]: > 150 µL/min/1e6 cells

O=c1[nH]c2c(O)ccc([C@@H](O)CNCCSCCCNCCc3ccccc3)c2s1
logD ([6]; pH 7.4, LogD7.4): 0.12
solubility thermodynamic [1]: 1150 µM (≈ 514 µg/mL)
microsomal CLint ([2]; liver microsomes): 5 µL/min/mg
hepatocyte CLint [3]: < 3 µL/min/1e6 cells
hepatocyte CLint [4]: 9 µL/min/1e6 cells

N#CCC(CNc1ncc(C(F)(F)F)cc1Cl)OC(=O)c1c(F)cccc1F (stereo unspecified)
microsomal CLint ([2]; liver microsomes): > 150 µL/min/mg
hepatocyte CLint [3]: > 150 µL/min/1e6 cells
hepatocyte CLint [4]: > 150 µL/min/1e6 cells

Cc1nn(-c2ccc(F)cc2)c(NS(=O)(=O)c2ccc(C#N)cc2)c1C(=O)N[C@@H](C)C(C)(C)C
fraction unbound at 5 h ([5]; PPB): 0.0437
logD ([6]; pH 7.4, LogD7.4): 0.45
hepatocyte CLint [3]: < 3 µL/min/1e6 cells
hepatocyte CLint [4]: 6 µL/min/1e6 cells
fraction unbound at 5 h [7]: 0.0801

Cc1cc(F)ccc1-n1nc(C(F)(F)F)cc1-c1ccc2c(c1)NC(=O)CO2
microsomal CLint ([2]; liver microsomes): 14.4 µL/min/mg
hepatocyte CLint [3]: 10.7 µL/min/1e6 cells
hepatocyte CLint [4]: 28.2 µL/min/1e6 cells
fraction unbound at 5 h [7]: 0.19

O=c1[nH]c2c(O)ccc([C@@H](O)CNCCc3cccc(CNCCc4c(Cl)cccc4Cl)c3)c2s1
logD ([6]; pH 7.4, LogD7.4): 3.15
microsomal CLint ([2]; liver microsomes): 63 µL/min/mg
hepatocyte CLint [3]: 5.17 µL/min/1e6 cells
hepatocyte CLint [4]: 78 µL/min/1e6 cells

CCOC(=O)/C=C/[C@H](C[C@@H]1CCNC1=O)NC(=O)[C@@H](CC(=O)[C@@H](NC(=O)c1cc(C)on1)C(C)C)Cc1ccc(F)cc1
logD ([6]; pH 7.4, LogD7.4): 2.8
microsomal CLint ([2]; liver microsomes): 105 µL/min/mg
hepatocyte CLint [3]: 40.7 µL/min/1e6 cells
hepatocyte CLint [4]: > 150 µL/min/1e6 cells

O=C(Nc1cc(-c2ccnc(Nc3ccccc3)c2)ccn1)C1CCOCC1
logD ([6]; pH 7.4, LogD7.4): 3.7
microsomal CLint ([2]; liver microsomes): 12.6 µL/min/mg
hepatocyte CLint [3]: 16.2 µL/min/1e6 cells
hepatocyte CLint [4]: > 150 µL/min/1e6 cells

CC(C)(C)NS(=O)(=O)c1cncc(-c2ccc3nc(NC(=O)NCC(=O)N4CCOCC4)nn3c2)c1
logD ([6]; pH 7.4, LogD7.4): 0.96
solubility thermodynamic [1]: 53.7 µM (≈ 27.7 µg/mL)
microsomal CLint ([2]; liver microsomes): 5 µL/min/mg
hepatocyte CLint [3]: 3.39 µL/min/1e6 cells
hepatocyte CLint [4]: 5 µL/min/1e6 cells
fraction unbound at 5 h [7]: 0.535

O=C1COC2(CCN(S(=O)(=O)c3ccc(-c4ccc5cnccc5c4)cc3)CC2)CN1C1CC1
fraction unbound at 5 h ([5]; PPB): 0.0018
logD ([6]; pH 7.4, LogD7.4): 3.32
solubility thermodynamic [1]: 2.2 µM (≈ 1.05 µg/mL)
microsomal CLint ([2]; liver microsomes): 115 µL/min/mg
hepatocyte CLint [3]: > 150 µL/min/1e6 cells
hepatocyte CLint [4]: > 150 µL/min/1e6 cells

COc1cccc2c1c(NS(=O)(=O)c1ccc(Cl)s1)nn2Cc1cccc(CNC(=O)[C@H]2COCCN2)c1
fraction unbound at 5 h ([5]; PPB): 0.0156
microsomal CLint ([2]; microsomes): 58.5 µL/min/mg
hepatocyte CLint [3]: 16 µL/min/1e6 cells
hepatocyte CLint [4]: 28 µL/min/1e6 cells
fraction unbound at 5 h [7]: 0.0052

C[C@H](CO)Nc1nc(SCc2ccccc2F)nc2nc(N)sc12
logD ([6]; pH 7.4, LogD7.4): 3.12
microsomal CLint ([2]; microsomes): 8.13 µL/min/mg
hepatocyte CLint [3]: 5.75 µL/min/1e6 cells
hepatocyte CLint [4]: 19 µL/min/1e6 cells

O=C(O)C[C@H]1CC[C@H](c2ccc(-c3ccc(Nc4ccc(C(F)(F)F)nc4)cn3)cc2)CC1
logD ([6]; pH 7.4, LogD7.4): 3.8
solubility thermodynamic [1]: 1.1 µM (≈ 0.501 µg/mL)
microsomal CLint ([2]; liver microsomes): < 3 µL/min/mg
hepatocyte CLint [3]: < 3 µL/min/1e6 cells
hepatocyte CLint [4]: 11.5 µL/min/1e6 cells

O=C(N[C@H](Cc1ccc(Cl)cc1)C(=O)N1CCC(Cn2cncn2)(C2CCCCC2)CC1)[C@H]1Cc2ccccc2CN1
fraction unbound at 5 h ([5]; PPB): 0.007
hepatocyte CLint [3]: 27.5 µL/min/1e6 cells
hepatocyte CLint [4]: 40.7 µL/min/1e6 cells
fraction unbound at 5 h [7]: 0.0052

O=c1c2sccc2n(CC2COc3ccccc3O2)c(=O)n1O (stereo unspecified)
logD ([6]; pH 7.4, LogD7.4): 1.44
solubility thermodynamic [1]: 120 µM (≈ 39.9 µg/mL)
microsomal CLint ([2]; liver microsomes): < 3 µL/min/mg
hepatocyte CLint [3]: 135 µL/min/1e6 cells
hepatocyte CLint [4]: 14.8 µL/min/1e6 cells

O=C(Cc1ccc(Cl)c(C(F)(F)F)c1)Nc1cccc2c(=O)n(CCO)ccc12
fraction unbound at 5 h ([5]; PPB): 0.0097
microsomal CLint ([2]; liver microsomes): < 3 µL/min/mg
hepatocyte CLint [3]: 32 µL/min/1e6 cells
hepatocyte CLint [4]: 11 µL/min/1e6 cells
fraction unbound at 5 h [7]: 0.072

O=C(NCC1(O)CCCCCC1)c1cc(-n2ncc(=O)[nH]c2=O)ccc1Cl
fraction unbound at 5 h ([5]; PPB): 0.24
logD ([6]; pH 7.4, LogD7.4): 0.26
microsomal CLint ([2]; liver microsomes): < 3 µL/min/mg
hepatocyte CLint [3]: < 3 µL/min/1e6 cells
hepatocyte CLint [4]: < 3 µL/min/1e6 cells
fraction unbound at 5 h [7]: 0.129

CN(C)CCCOc1nn(Cc2ccccc2)c2ccccc12 [BENZYDAMINE]
logD ([6]; pH 7.4, LogD7.4): 2.4
microsomal CLint ([2]; microsomes): 17.8 µL/min/mg
hepatocyte CLint [3]: 7.76 µL/min/1e6 cells
hepatocyte CLint [4]: > 150 µL/min/1e6 cells

CC(C)NCC(O)COc1ccc(CCOCC2CC2)cc1 (stereo unspecified) [BETAXOLOL]
fraction unbound at 5 h ([5]; PPB): 0.725
microsomal CLint ([2]; microsomes): < 3 µL/min/mg
hepatocyte CLint [3]: < 3 µL/min/1e6 cells
hepatocyte CLint [4]: 12 µL/min/1e6 cells
fraction unbound at 5 h [7]: 0.409

CCC(=O)N[C@H]1CC[C@@H](C(=O)N(C)c2ccc(-c3nc4ccccc4o3)cc2)C1 [BI 99179]
logD ([6]; pH 7.4, LogD7.4): 3.4
solubility thermodynamic [1]: 45.7 µM (≈ 17.9 µg/mL)
microsomal CLint ([2]; microsomes): 11 µL/min/mg
hepatocyte CLint [3]: 4.57 µL/min/1e6 cells
hepatocyte CLint [4]: 7.59 µL/min/1e6 cells

C[C@]12CCC(=O)C=C1C=C[C@@H]1[C@@H]2CC[C@@]2(C)[C@H]1CC[C@@]21CCC(=O)O1 [CANRENONE]
fraction unbound at 5 h ([5]; PPB): 0.0594
logD ([6]; pH 7.4, LogD7.4): 3.2
microsomal CLint ([2]; liver microsomes): 14.4 µL/min/mg
hepatocyte CLint [3]: 6.61 µL/min/1e6 cells
hepatocyte CLint [4]: 45.7 µL/min/1e6 cells
fraction unbound at 5 h [7]: 0.0383

O=C(c1ccc(F)cc1)C1CCN(CCn2c(=O)[nH]c3ccccc3c2=O)CC1 [KETANSERIN]
fraction unbound at 5 h ([5]; PPB): 0.0968
hepatocyte CLint [3]: 30.2 µL/min/1e6 cells
hepatocyte CLint [4]: 24.6 µL/min/1e6 cells
fraction unbound at 5 h [7]: 0.0064

O=C1Nc2ccc(Cl)cc2C(c2ccccc2Cl)=NC1O (stereo unspecified) [LORAZEPAM]
fraction unbound at 5 h [5]: 0.072
solubility thermodynamic [1]: 178 µM (≈ 57.1 µg/mL)
microsomal CLint ([2]; liver microsomes): 7.94 µL/min/mg
hepatocyte CLint [3]: 4.57 µL/min/1e6 cells
hepatocyte CLint [4]: 17.4 µL/min/1e6 cells

CCS(=O)(=O)CCCC12CCC(c3nnc(-c4ccccc4C(F)(F)F)n3C)(CC1)CC2 [MK-0736]
microsomal CLint ([2]; liver microsomes): < 3 µL/min/mg
hepatocyte CLint [3]: < 3 µL/min/1e6 cells
hepatocyte CLint [4]: < 3 µL/min/1e6 cells

CCCCNC(=O)NS(=O)(=O)c1ccc(C)cc1 [TOLBUTAMIDE]
microsomal CLint ([2]; microsomes): 6.31 µL/min/mg
hepatocyte CLint [3]: 6.31 µL/min/1e6 cells
hepatocyte CLint [4]: 6.61 µL/min/1e6 cells

Cc1c(C)c2c(c(C)c1O)CCC(C)(COc1ccc(CC3SC(=O)NC3=O)cc1)O2 (stereo unspecified) [TROGLITAZONE]
fraction unbound at 5 h ([5]; PPB): 0.0009
microsomal CLint ([2]; liver microsomes): 49 µL/min/mg
hepatocyte CLint [3]: 28.2 µL/min/1e6 cells
hepatocyte CLint [4]: > 150 µL/min/1e6 cells
